Test results: US20070037799A1, “Fungicide ternary active ingredient combinations” (Bayer Cropscience Aktiengesellschaft, priority 2003, published 2007)

tested on: Erysiphe graminis f. sp. Tritici; test: Erysiphe test (wheat)/curative; assay type: in vivo, Erysiphe graminis f. sp. Tritici on wheat; conditions: curative, sprayed 48 hours after inoculation, application rate 50 g/ha of each active compound, evaluation 8 days after inoculation, 0% = control, 100% = no infection
Procedure: The efficacy here is determined in %. 0% denotes an efficacy which corresponds to that of the control, while an efficacy of 100% means that no infection is observed.
To produce a suitable preparation of active compound, 1 part by weight of active compound or active compound combination is mixed with the stated amounts of solvent and emulsifier, and the concentrate is diluted with water to the desired concentration.
To test for curative activity, young plants are dusted with spores of Erysiphe graminis f. sp. Tritici. 48 hours after the inoculation, the plants are sprayed with the preparation of active compound at the stated application rate.
The plants are placed in a greenhouse at a temperature of about 20° C. and a relative atmospheric humidity of about 80% to promote the development of mildew pustules.
Evaluation is carried out 8 days after the inoculation. 0% means an efficacy which corresponds to that of the control, whereas an efficacy of 100% means that no infection is observed.

| Compound | Efficacy in % found (activity found) |
| --- | --- |
| OC(Cc1ccccc1Cl)(Cn1nc[nH]c1=S)C1(Cl)CC1 (stereo not drawn) [(II) prothioconazole, prothioconazole] | 0% |
| CC(C)(C)C(O)(CCc1ccc(Cl)cc1)Cn1cncn1 (stereo not drawn) [(III) tebucinazole, tebucinazole] | 22% |
| CON=C(C1=NOCCO1)c1ccccc1Oc1ncnc(Oc2ccccc2Cl)c1F [(I) fluoxastrobin, 3-[1-[2-(4-<2-chlorophenoxy>-5-fluoropyrimid-6-yloxy)phenyl]-1-(methoximino)methyl]-5,6-dihydro-1,4,2-dioxazine] | 11% |
